Data taken from patent publication US20250188030A1, “Biphenyl and Phenylpyridine Compounds” (Pfizer Inc., priority 2023, published 2025).

Key:
KAT2A = KAT2A (Homo sapiens (Human), UniProt Q92830); test: KAT2A acetyltransferase biochemical assay (RapidFire mass spectrometry, AcCoA to CoA); conditions: read-out: KAT2A Ki at 1 μM AcCoA, 5 μM H3 1-21 peptide, 0.5 nM KAT2A, 90-minute reaction
H3K9AC (HT1080 cells) = test: H3K9AC Sandwich ELISA Assay in HT1080 cells (KAT2A primary cell-based screening assay); parameters: species or system Human
Method: Human fibrosarcoma cell line HT1080 was obtained from American Type Culture Collection (ATCC), Manassas, VA USA, Cat. HT-1080 (ATCC® CCL-121™). Cells were cultured in MEM (Thermo Fisher Scientific/Gibco Life Technologies Cat. #11-095-080) plus 10% (v/v) FBS (Thermo Fisher Scientific/Gibco Life Technologies Cat. #26140-079) and 1% Penicillin-Streptomycin (Thermo Fisher Scientific/Gibco Life Technologies Cat. #15070063) at 37° C. in 5% CO2.
HT1080 cells were trypsinized, cell viability count performed, and cells suspended in complete media at 100,000 cells/ml. Cells were seeded (100 μl/well) into Greiner Bio-One CELLSTAR 96-well polystyrene flat bottom cell culture microplate (Thermo Fisher Scientific Cat. #07-000-162) at a density of 10,000 cells/well. Cells were incubated for 16 hours at 37° C. at 5% CO2. Compound dilution plates were prepared in 96-well, clear U-bottom, polypropylene plates (Corning 3365) in 100% DMSO at 10 mM stock concentration in duplicate, using 10-point serial dilution (1:3). Compounds were diluted to 1:200 in growth medium and 25 μl from intermediate compound plates were added to each well of the cell plates using a Beckman FX liquid handling system such that the highest compound concentration tested was 10 μM final, with a 0.1% final DMSO concentration in the total volume of 125 μl. Plates were incubated for 24 hours at 37° C. and 5% CO2. Plates were centrifuged at 2500 rpm for 5 minutes and medium was removed. 100 μL 0.4N HCL (Thermo Fisher Scientific Cat #SA56-1) was added to each well and plates were shaken for 60 minutes at 4C to lyse cells. 38ul 0.4N Sodium phosphase dibasic pH12.5 (Thermo Fisher Scientific Cat #S375-212) containing 2 mM Sodium Butyrate (Millipore TR1008G) and 3 mM Phenylmethanesulfonyl-fluoride (Sigma 93482) was added to each well to neutralize lysates.
Cell lysate plates were mixed for 5 minutes at room temperature on shaker and immediately frozen at −80C overnight. Cell lysates were thawed and 50 μL/well was transferred to ELISA plates (Total Histone H3 mouse (Cell Signaling Technology Cat #14269) mAb-coated Corning 1×8 strip-well, white, 96-well plates (Corning 2485)). After 2 hours room temperature incubation, plates were washed six times with PBS/0.05% Tween Wash Buffer using a BioTek plate washer. 50 μL of Histone H3K9AC rabbit detection mAb (Cell Signaling Technology Cat #9649S) diluted 1:1000 in blocking buffer (Thermo Fisher Scientific Cat #37542) was added to each well and incubated for 2 hours at room temperature. After washing, 50 μL anti-rabbit IgG, HRP-Linked antibody (Cell Signaling Technology Cat #7074) diluted 1:1000 in blocking buffer was added to each well and incubated for 60 minutes at room temperature. Following incubation, plates were washed as described above. 50 μL of luminescent GLO substrate reagent (R&D System Cat #DY993) was added to each well and incubated for 10 minutes at room temperature. Plates were read on the PHERAstar plate reader using the 96-well with Luminescent reading mode. IC50 values were calculated using a four-parameter fit with GraphPad Prism version 9.5.1 or in-house modified IDBS ActivityBase data analyzing package.

[1] = Homo sapiens, HT-1080, H3K9AC sandwich ELISA

Chain of KAT2A (Q92830 whole entry): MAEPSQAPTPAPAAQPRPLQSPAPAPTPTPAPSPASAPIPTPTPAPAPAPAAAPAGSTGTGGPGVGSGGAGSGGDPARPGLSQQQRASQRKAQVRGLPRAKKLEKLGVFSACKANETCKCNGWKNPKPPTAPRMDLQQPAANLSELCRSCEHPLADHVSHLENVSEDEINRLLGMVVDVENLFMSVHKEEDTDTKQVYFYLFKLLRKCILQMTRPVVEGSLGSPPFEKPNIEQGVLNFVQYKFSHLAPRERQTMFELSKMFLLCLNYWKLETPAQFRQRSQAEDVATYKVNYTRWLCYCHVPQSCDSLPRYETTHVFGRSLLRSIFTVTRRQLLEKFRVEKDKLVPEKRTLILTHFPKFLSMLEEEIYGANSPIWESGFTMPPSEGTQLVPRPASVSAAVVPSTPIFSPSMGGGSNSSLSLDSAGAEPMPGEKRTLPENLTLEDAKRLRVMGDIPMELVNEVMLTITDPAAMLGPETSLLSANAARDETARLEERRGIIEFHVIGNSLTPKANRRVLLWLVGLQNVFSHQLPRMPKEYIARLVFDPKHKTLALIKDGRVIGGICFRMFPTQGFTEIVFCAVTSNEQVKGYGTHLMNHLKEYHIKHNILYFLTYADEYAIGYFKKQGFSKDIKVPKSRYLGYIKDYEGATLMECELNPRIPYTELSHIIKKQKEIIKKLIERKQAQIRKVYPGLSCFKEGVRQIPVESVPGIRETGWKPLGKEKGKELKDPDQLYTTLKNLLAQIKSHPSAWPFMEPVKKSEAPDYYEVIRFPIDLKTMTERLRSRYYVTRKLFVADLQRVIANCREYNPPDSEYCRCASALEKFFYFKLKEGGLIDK

Structure (SMILES)	Ki (KAT2A)	IC50 (H3K9AC (HT1080 cells); H3K9AC sandwich ELISA)	IC50 (H3K9AC (HT1080 cells); [1])
CCc1c(F)cccc1-c1cc([C@@H](C)C(=O)NS(=O)(=O)C2(C)CC2)ccc1O[C@@H]1CC[C@@H](NC(=O)[C@@]2(F)CNC3(CCC3)C2)C1 (single isomer, unassigned) [Example C82]	0.07 nM	8.7 nM	
CCS(=O)(=O)NC(=O)[C@H](C)c1ccc(O[C@@H]2CC[C@@H](NC(=O)[C@@]3(F)CNC4(CCC4)C3)C2)c(-c2ccccc2C(C)C)c1 (single isomer, unassigned) [Example C88]	0.21 nM		10.3 nM
CCc1ccccc1-c1cc(CC(=O)NS(=O)(=O)C(C)C)ccc1O[C@@H]1CC[C@@H](NC(=O)[C@@]2(F)CNC3(CCC3)C2)C1 [Example C52, (7S)-N-[(1R,3R)-3-({2′-ethyl-5-[2-oxo-2-(propane-2-sulfonamido)ethyl][1,1′-biphenyl]-2-yl}oxy)cyclopentyl]-7-fluoro-5-azaspiro[3.4]octane-7-carboxamide]	0.48 nM		8.5 nM
O=C(O)c1ccc(O[C@@H]2CC[C@@H](NC(=O)[C@@]3(F)CNC4(CCC4)C3)C2)c(-c2cccc(F)c2C2CCC2)c1 [Example A29, 2′-cyclobutyl-3′-fluoro-6-{[(1R,3R)-3-{[(7S)-7-fluoro-5-azaspiro[3.4]octane-7-carbonyl]amino}cyclopentyl]oxy}[1,1′-biphenyl]-3-carboxylic acid]	0.11 nM		> 1000 nM
CC(C)c1ccccc1-c1cc(CC(=O)NS(=O)(=O)C2(C)CC2)ccc1O[C@@H]1CC[C@@H](NC(=O)[C@@]2(F)CNCC(C)(C)C2)C1 (single isomer, unassigned) [Example C80]	0.11 nM	2.6 nM	
CN1C[C@@](F)(C(=O)N[C@@H]2CC[C@@H](Oc3ccc(C(C)(C)C(=O)NS(C)(=O)=O)cc3-c3cccc(F)c3C3CCC3)C2)CC1(C)C (single isomer, unassigned) [Example B8]	716 nM		> 1000 nM
CCS(=O)(=O)NC(=O)C(C)c1ccc(O[C@@H]2CC[C@@H](NC(=O)[C@@]3(F)CNC4(CCC4)C3)C2)c(-c2ccccc2C(C)C)c1 (single isomer, unassigned) [Example C89]	0.16 nM	6.5 nM	
CC[C@](C)(C(=O)O)c1ccc(O[C@@H]2CC[C@@H](NC(=O)[C@]3(F)CNC4(CCC4)C3)C2)c(-c2cccc(F)c2C2CCC2)c1 (single isomer, unassigned) [Example A11]	> 1000 nM	> 1000 nM	
CC(C)c1ccccc1-c1cc(CC(=O)NS(=O)(=O)C(C)C)ccc1O[C@@H]1CC[C@@H](NC(=O)[C@@]2(F)CNCC(C)(C)C2)C1 (single isomer, unassigned) [Example C74]	> 99.9 nM	> 1000 nM	
CCS(=O)(=O)NC(=O)Cc1ccc(O[C@@H]2CC[C@@H](NC(=O)[C@@]3(F)CNC4(CCCC4)C3)C2)c(-c2cccc(F)c2C2CCC2)c1 (single isomer, unassigned) [Example C71]	0.01 nM	1 nM	
CCS(=O)(=O)NC(=O)Cc1ccc(O[C@@H]2CC[C@@H](NC(=O)[C@@]3(F)CNC4(CCC4)C3)C2)c(-c2cccc(F)c2C2CCC2)c1 (single isomer, unassigned) [Example C32]	4.51 nM		40.8 nM
CCc1c(F)cccc1-c1cc(C(C)(C)C(=O)NS(=O)(=O)CC)ccc1O[C@@H]1CC[C@@H](NC(=O)[C@@]2(F)CNC3(CCC3)C2)C1 [Example C17, (7S)-N-[(1R,3R)-3-({5-[1-(ethanesulfonamido)-2-methyl-1-oxopropan-2-yl]-2′-ethyl-3′-fluoro[1,1′-biphenyl]-2-yl}oxy)cyclopentyl]-7-fluoro-5-azaspiro[3.4]octane-7-carboxamide]	2750 nM		> 1000 nM
CCc1c(F)cccc1-c1cc(C(C)(C)C(=O)NS(=O)(=O)C(C)C)ccc1O[C@@H]1CC[C@@H](NC(=O)[C@@]2(F)CNCC(C)(C)C2)C1 (single isomer, unassigned) [Example C44]	> 99.9 nM	> 1000 nM	
CC[C@](C)(C(=O)O)c1ccc(O[C@@H]2CC[C@@H](NC(=O)[C@]3(F)CNC4(CCC4)C3)C2)c(-c2cccc(F)c2C2CCC2)c1 (single isomer, unassigned) [Example A10]	> 1000 nM	> 1000 nM	
CCc1c(F)cccc1-c1cc(CC(=O)NS(=O)(=O)C(C)C)ccc1O[C@@H]1CC[C@@H](NC(=O)[C@@]2(F)CNC3(CCCC3)C2)C1 (single isomer, unassigned) [Example C72]	45.4 nM	> 1000 nM	
O=C(O)c1ccc(O[C@@H]2CC[C@@H](NC(=O)[C@@]3(F)CNCC4(CCC4)C3)C2)c(-c2cccc(F)c2C2CCC2)c1 (single isomer, unassigned) [Example A33]	> 99.9 nM	> 1000 nM	

Second part, the compound after the results:

Ki (KAT2A)	IC50 (H3K9AC (HT1080 cells); H3K9AC sandwich ELISA)	IC50 (H3K9AC (HT1080 cells); [1])	Structure (SMILES)
2.16 nM	4300 nM		Cn1cc(-c2ccc(O[C@@H]3CC[C@@H](NC(=O)[C@]4(F)CNC5(CCC5)C4)C3)c(-c3cccc(F)c3C3CCC3)c2)c(C(=O)O)n1 (single isomer, unassigned) [Example J9]
2.64 nM		14.4 nM	CN1CC(C)(C)C[C@H]1C(=O)N[C@@H]1CC[C@@H](Oc2ccc(C(C)(C)c3noc(=O)[nH]3)cc2-c2cccc(F)c2C2CCC2)C1 [Example D17, N-[(1R,3R)-3-({2′-cyclobutyl-3′-fluoro-5-[2-(5-oxo-4,5-dihydro-1,2,4-oxadiazol-3-yl)propan-2-yl][1,1′-biphenyl]-2-yl}oxy)cyclopentyl]-1,4,4-trimethyl-L-prolinamide]
3.57 nM		45.1 nM	CC(C)c1c(F)cccc1-c1cc(C(=O)O)ccc1O[C@@H]1CC[C@@H](NC(=O)[C@@H]2CC(C)(C)CN2C)C1 [Example D7, 3′-fluoro-2′-(propan-2-yl)-6-({(1R,3R)-3-[(1,4,4-trimethyl-L-prolyl)amino]cyclopentyl}oxy)[1,1′-biphenyl]-3-carboxylic acid]
25.1 nM		88 nM	CN1CC(C)(C)C[C@H]1C(=O)N[C@@H]1CC[C@@H](Oc2ccc(C(=O)O)cc2-c2ccccc2C2CCC2)C1 [Example D4, 2′-cyclobutyl-6-({(1R,3R)-3-[(1,4,4-trimethyl-L-prolyl)amino]cyclopentyl}oxy)[1,1′-biphenyl]-3-carboxylic acid]
25.8 nM	> 1000 nM		O=C(O)c1nn(C2CC2)cc1-c1ccc(O[C@@H]2CC[C@@H](NC(=O)[C@@]3(F)CNC4(CCC4)C3)C2)c(-c2cccc(F)c2C2CCC2)c1 (single isomer, unassigned) [Example J12]
2.15 nM		20.5 nM	C[C@H](C(=O)NS(C)(=O)=O)c1ccc(OC[C@H]2C[C@H](NC(=O)[C@@H]3CC(C)(C)CN3C)C2)c(-c2cccc(F)c2C2CCC2)c1 (single isomer, unassigned) [Example G3]
> 1000 nM	746 nM		Cn1cc(-c2ccc(O[C@@H]3CC[C@@H](NC(=O)[C@]4(F)CNC5(CCC5)C4)C3)c(-c3cccc(F)c3C3CCC3)c2)c(C(C)(C)C(=O)O)n1 (single isomer, unassigned) [Example J6]
1430 nM	> 6680 nM		CN1CC(C)(C)C[C@H]1C(=O)N[C@@H]1CC[C@@H](Oc2cccc(CC(=O)NS(C)(=O)=O)c2-c2ccccc2C2CCC2)C1 (atropisomer, axis not shown) [Example I3, N-[(1R,3R)-3-{[(1ψ)-2′-cyclobutyl-6-{2-[(methanesulfonyl)amino]-2-oxoethyl}[1,1′-biphenyl]-2-yl]oxy}cyclopentyl]-1,4,4-trimethyl-L-prolinamide]
